Test results reported in article PMC10927987, “Biochemical characterization, structure-guided mutagenesis, and application of a recombinant D-allulose 3-epimerase from Christensenellaceae bacterium for the biocatalytic production of D-allulose” (Frontiers in Bioengineering and Biotechnology, 2024).

System: T1, CbDAE
T1 construct: codon-optimized gene in pET-28a(+) (NdeI/EcoRI), E. coli BL21(DE3), Ni-NTA purified, His tag; mutagenesis template given as pET22b-CbDAE
Assay: epimerization, HPLC-RI, Michaelis-Menten fit
Type: biochemical, Christensenellaceae bacterium
Details: standard reaction conditions: 1 mM Co2+, 60 °C, 10 min; 5-300 mM substrate
Source text: epimerization, HPLC-RI, Michaelis-Menten fit on CbDAE

OCC1(O)OC[C@@H](O)[C@@H](O)[C@H]1O (stereo partly drawn) [D-allulose]
Km: 44.9 ± 5.1 mM

OCC1(O)OC[C@@H](O)[C@H](O)[C@H]1O (stereo partly drawn) [D-sorbose]
Km: 61.6 ± 4.8 mM

OCC1(O)OC[C@@H](O)[C@H](O)[C@@H]1O (stereo partly drawn) [D-tagatose]
Km: 52.7 ± 6.2 mM
